This is an account of results in patent US8846719B2, “Isoxazolo-pyridine derivatives” (Roche Palo Alto LLC, priority 2007, dated 2014).

In the test the target is human GABA A receptor α5β3γ2 (Homo sapiens (Human), UniProt P18507+P31644). In words: [3H]flumazenil competition binding assay, human GABA A α5β3γ2 receptors expressed in HEK293 cells. The settings on record: human receptor; displacement of [3H]flumazenil (0.5 nM); means of two determinations; read-out: hKi GABAAa5. In outline: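 Competition for [3H]flumazenil binding on membranes of HEK293 cells transiently transfected with human α5β3γ2 receptors, in Krebs-tris buffer pH 7.5.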
`Cc1onc(-c2ccc(F)c(F)c2)c1COc1ccc(C(=O)NC2CCOCC2)cn1` [Example 127, 6-[3-(3,4-Difluoro-phenyl)-5-methyl-isoxazol-4-ylmethoxy]-N-(tetrahydro-pyran-4-yl)-nicotinamide]: the Ki was 2.4 nM.
`COC(=O)c1ccc(OCc2c(-c3ccccc3)noc2C(F)(F)F)nc1` [Example 128, 6-(3-Phenyl-5-trifluoromethyl-isoxazol-4-ylmethoxy)-nicotinic acid methyl ester]: the Ki came to 88.5 nM.
To `CNC(=O)c1ccc(OCc2c(-c3ccccc3)noc2C(F)(F)F)nc1` [Example 129, N-Methyl-6-(3-phenyl-5-trifluoromethyl-isoxazol-4-ylmethoxy)-nicotinamide] belongs 24.3 nM; to `CCNC(=O)c1ccc(OCc2c(-c3ccccc3)noc2C(F)(F)F)nc1` [Example 130, N-Ethyl-6-(3-phenyl-5-trifluoromethyl-isoxazol-4-ylmethoxy)-nicotinamide], 30.8 nM; to `O=C(NCCO)c1ccc(OCc2c(-c3ccccc3)noc2C(F)(F)F)nc1` [Example 131, N-(2-Hydroxy-ethyl)-6-(3-phenyl-5-trifluoromethyl-isoxazol-4-ylmethoxy)-nicotinamide], 34 nM.
Regarding `O=C(NCC1CC1)c1ccc(OCc2c(-c3ccccc3)noc2C(F)(F)F)nc1` [Example 132, N-Cyclopropylmethyl-6-(3-phenyl-5-trifluoromethyl-isoxazol-4-ylmethoxy)-nicotinamide], the Ki was found to be 28.3 nM.
Turning to `CC(C)NC(=O)c1ccc(OCc2c(-c3ccccc3)noc2C(F)(F)F)nc1` [Example 133, N-Isopropyl-6-(3-phenyl-5-trifluoromethyl-isoxazol-4-ylmethoxy)-nicotinamide], the Ki came out at 41.6 nM.
For the molecule `O=C(NC1CC1)c1ccc(OCc2c(-c3ccccc3)noc2C(F)(F)F)nc1` [Example 134, N-Cyclopropyl-6-(3-phenyl-5-trifluoromethyl-isoxazol-4-ylmethoxy)-nicotinamide], the Ki was 23.8 nM.
To `O=C(NC1CCOCC1)c1ccc(OCc2c(-c3ccccc3)noc2C(F)(F)F)nc1` [Example 135, 6-(3-Phenyl-5-trifluoromethyl-isoxazol-4-ylmethoxy)-N-(tetrahydro-pyran-4-yl)-nicotinamide] belongs 22.1 nM.
To `COC(=O)c1ccc(OCc2c(-c3ccc(F)cc3)noc2C(F)(F)F)nc1` [Example 136, 6-[3-(4-Fluoro-phenyl)-5-trifluoromethyl-isoxazol-4-ylmethoxy]-nicotinic acid methyl ester] belongs 57 nM; to `CNC(=O)c1ccc(OCc2c(-c3ccc(F)cc3)noc2C(F)(F)F)nc1` [Example 137, 6-[3-(4-Fluoro-phenyl)-5-trifluoromethyl-isoxazol-4-ylmethoxy]-N-methyl-nicotinamide], 19.8 nM.
To `CCNC(=O)c1ccc(OCc2c(-c3ccc(F)cc3)noc2C(F)(F)F)nc1` [Example 138, N-Ethyl-6-[3-(4-fluoro-phenyl)-5-trifluoromethyl-isoxazol-4-ylmethoxy]-nicotinamide] belongs 33.3 nM; to `O=C(NCCO)c1ccc(OCc2c(-c3ccc(F)cc3)noc2C(F)(F)F)nc1` [Example 139, 6-[3-(4-Fluoro-phenyl)-5-trifluoromethyl-isoxazol-4-ylmethoxy]-N-(2-hydroxy-ethyl)-nicotinamide], 16.5 nM; to `O=C(NCC(F)(F)F)c1ccc(OCc2c(-c3ccc(F)cc3)noc2C(F)(F)F)nc1` [Example 140, 6-[3-(4-Fluoro-phenyl)-5-trifluoromethyl-isoxazol-4-ylmethoxy]-N-(2,2,2-trifluoro-ethyl)-nicotinamide], 57.8 nM.
In the case of `O=C(NCC1CC1)c1ccc(OCc2c(-c3ccc(F)cc3)noc2C(F)(F)F)nc1` [Example 141, N-Cyclopropylmethyl-6-[3-(4-fluoro-phenyl)-5-trifluoromethyl-isoxazol-4-ylmethoxy]-nicotinamide], the Ki was determined as 22.5 nM.
To `CC(C)NC(=O)c1ccc(OCc2c(-c3ccc(F)cc3)noc2C(F)(F)F)nc1` [Example 142, 6-[3-(4-Fluoro-phenyl)-5-trifluoromethyl-isoxazol-4-ylmethoxy]-N-isopropyl-nicotinamide] belongs 33.5 nM.
To `O=C(NC1CC1)c1ccc(OCc2c(-c3ccc(F)cc3)noc2C(F)(F)F)nc1` [Example 143, N-Cyclopropyl-6-[3-(4-fluoro-phenyl)-5-trifluoromethyl-isoxazol-4-ylmethoxy]-nicotinamide] belongs 38.4 nM; to `O=C(NC1CCOCC1)c1ccc(OCc2c(-c3ccc(F)cc3)noc2C(F)(F)F)nc1` [Example 144, 6-[3-(4-Fluoro-phenyl)-5-trifluoromethyl-isoxazol-4-ylmethoxy]-N-(tetrahydro-pyran-4-yl)-nicotinamide], 12.5 nM; to `O=C(c1ccc(OCc2c(-c3ccc(F)cc3)noc2C(F)(F)F)nc1)N1CCS(=O)(=O)CC1` [Example 145, (1,1-Dioxo-1λ6-thiomorpholin-4-yl)-{6-[3-(4-fluoro-phenyl)-5-trifluoromethyl-isoxazol-4-ylmethoxy]-pyridin-3-yl}-methanone], 58.9 nM.
To `Cc1onc(-c2ccncc2)c1COc1ccc(C(=O)NCC(F)(F)F)cn1` [Example 146, 6-(5-Methyl-3-pyridin-4-yl-isoxazol-4-ylmethoxy)-N-(2,2,2-trifluoro-ethyl)-nicotinamide] belongs 5.9 nM; to `Cc1onc(-c2ccncc2)c1COc1ccc(C(=O)NCC2CC2)cn1` [Example 147, N-Cyclopropylmethyl-6-(5-methyl-3-pyridin-4-yl-isoxazol-4-ylmethoxy)-nicotinamide], 4.1 nM.
Regarding `Cc1onc(-c2ccncc2)c1COc1ccc(C(=O)NC2CC2)cn1` [Example 148, N-Cyclopropyl-6-(5-methyl-3-pyridin-4-yl-isoxazol-4-ylmethoxy)-nicotinamide], the Ki was found to be 7.1 nM.
To `Cc1onc(-c2ccncc2)c1COc1ccc(C(=O)NC(C)C)cn1` [Example 149, N-Isopropyl-6-(5-methyl-3-pyridin-4-yl-isoxazol-4-ylmethoxy)-nicotinamide] belongs 4.5 nM; to `Cc1onc(-c2ccncc2)c1COc1ccc(C(=O)NC2CCOCC2)cn1` [Example 150, 6-(5-Methyl-3-pyridin-4-yl-isoxazol-4-ylmethoxy)-N-(tetrahydro-pyran-4-yl)-nicotinamide], 5.6 nM.
To `Cc1onc(-c2ccncc2)c1COc1ccc(C(=O)N2CCOCC2)cn1` [Example 151, [6-(5-Methyl-3-pyridin-4-yl-isoxazol-4-ylmethoxy)-pyridin-3-yl]-morpholin-4-yl-methanone] belongs 84.5 nM; to `Cc1onc(-c2ccncc2)c1COc1ccc(C(=O)N2CCSCC2)cn1` [Example 152, [6-(5-Methyl-3-pyridin-4-yl-isoxazol-4-ylmethoxy)-pyridin-3-yl]-thiomorpholin-4-yl-methanone], 39.7 nM; to `Cc1onc(-c2ccncc2)c1COc1ccc(C(=O)N2CCS(=O)(=O)CC2)cn1` [Example 153, (1,1-Dioxo-1λ6-thiomorpholin-4-yl)-[6-(5-methyl-3-pyridin-4-yl-isoxazol-4-ylmethoxy)-pyridin-3-yl]-methanone], 65.7 nM.
Consider `COC(=O)c1ccc(OCc2c(-c3cccnc3)noc2C)nc1` [Example 154, 6-(5-Methyl-3-pyridin-3-yl-isoxazol-4-ylmethoxy)-nicotinic acid methyl ester], for which the Ki amounted to 53.2 nM.
To `Cc1onc(-c2cccnc2)c1COc1ccc(C(=O)NCC(F)(F)F)cn1` [Example 155, 6-(5-Methyl-3-pyridin-3-yl-isoxazol-4-ylmethoxy)-N-(2,2,2-trifluoro-ethyl)-nicotinamide] belongs 24 nM.
With `Cc1onc(-c2cccnc2)c1COc1ccc(C(=O)NCC2CC2)cn1` [Example 156, N-Cyclopropylmethyl-6-(5-methyl-3-pyridin-3-yl-isoxazol-4-ylmethoxy)-nicotinamide], the Ki worked out at 29.8 nM.
To `Cc1onc(-c2cccnc2)c1COc1ccc(C(=O)NC2CC2)cn1` [Example 157, N-Cyclopropyl-6-(5-methyl-3-pyridin-3-yl-isoxazol-4-ylmethoxy)-nicotinamide] belongs 26.3 nM; to `Cc1onc(-c2cccnc2)c1COc1ccc(C(=O)NC(C)C)cn1` [Example 158, N-Isopropyl-6-(5-methyl-3-pyridin-3-yl-isoxazol-4-ylmethoxy)-nicotinamide], 31.7 nM; to `Cc1onc(-c2cccnc2)c1COc1ccc(C(=O)NC2CCOCC2)cn1` [Example 159, 6-(5-Methyl-3-pyridin-3-yl-isoxazol-4-ylmethoxy)-N-(tetrahydro-pyran-4-yl)-nicotinamide], 27.9 nM.
To `Cc1onc(-c2ccccc2)c1CNc1ccccn1` [Example 160, (5-Methyl-3-phenyl-isoxazol-4-ylmethyl)-pyridin-2-yl-amine] belongs 87.3 nM; to `COC(=O)c1ccc(NCc2c(-c3ccccc3)noc2C)nc1` [Example 161, 6-[(5-Methyl-3-phenyl-isoxazol-4-ylmethyl)-amino]-nicotinic acid methyl ester], 27.4 nM; to `Cc1onc(-c2ccccc2)c1CNc1ccc(C(=O)NCCO)cn1` [Example 162, N-(2-Hydroxy-ethyl)-6-[(5-methyl-3-phenyl-isoxazol-4-ylmethyl)-amino]-nicotinamide], 10.4 nM.
`Cc1onc(-c2ccccc2)c1CNc1ccc(C(=O)NCCN2CCCC2=O)cn1` [Example 163, 6-[(5-Methyl-3-phenyl-isoxazol-4-ylmethyl)-amino]-N-[2-(2-oxo-pyrrolidin-1-yl)-ethyl]-nicotinamide]: the Ki came out at 37.3 nM.
In the case of `Cc1onc(-c2ccccc2)c1CNc1ccc(C(=O)NC(C)C)cn1` [Example 164, N-Isopropyl-6-[(5-methyl-3-phenyl-isoxazol-4-ylmethyl)-amino]-nicotinamide], the Ki is 5.9 nM.
For the molecule `Cc1onc(-c2ccccc2)c1CNc1ccc(C(=O)NC2CC2)cn1` [Example 165, N-Cyclopropyl-6-[(5-methyl-3-phenyl-isoxazol-4-ylmethyl)-amino]-nicotinamide], the Ki amounted to 10.6 nM.
